Experimental data as given in ChEMBL document CHEMBL5375991, “Bioorthogonal Bond Cleavage Chemistry for On-demand Prodrug Activation: Opportunities and Challenges” (J Med Chem, 2023).

Key:
[1] = Stability of compound in 3% DMSO/PBS measured after 24 hrs relative to control; type: physicochemical; settings: read-out: Stability
[2] = Stability in human plasma measured after 4 hrs; type: ADME, cell-free; settings: read-out: Stability

SMILES | remaining at 24 h [1] | remaining at 4 h [2]
O=C(O)c1ccc(-c2[s+]c(-c3ccc(N(c4ccccc4)c4ccccc4)cc3)sc2[O-])cc1 | 47.6% | 
CCC[N+]1=C(/C=C/C2=C3Oc4cc(NC(=O)O[C@@H]5/C=C/CCCCC5)ccc4C=C3CCC2)C(C)(C)c2ccccc21 |  | 77%
